The IC50 is the concentration at which inhibition is half-maximal.

The source of these data is US8283473B2, “Platinum complex compound and utilization of the same” (Yakult Honsha Co., Ltd, priority 2008, dated 2012).

The test system of this assay is H460 non-small cell lung cancer cells. Kind of assay: In vitro cytotoxicity (inhibitory activity on cancer cell proliferation), MTT formazan absorbance assay. The class given is cell-based. The conditions noted are these: 24 hours incubation at 37° C., absorbance at 550 nm, read-out: IC50 value of platinum complex compounds for H460 non-small cell lung cancer cells. On the procedure:
<Investigation of the In Vitro Cytotoxicity (Inhibitory Activity on Cancer Cell Proliferation) for H460 Non-Small Cell Lung Cancer Cells>
On the day prior to the day of agent addition, H460 non-small cell lung cancer cells were plated onto 24-well flatbottom microplates at 12,000 to 20,000 cells/well. An aqueous solution was prepared for each sample (refer to the sample numbers in Table 1) by dissolving the sample in Q-H2O water to a concentration of 100 μM. These aqueous solutions were diluted to provide solutions with various concentrations, and 1 mL of the particular dilution was introduced into each well. After incubation of the microplate for 24 hours at 37° C., […] a 2,5-diphenyl-3-(4,5-dimethylthiazol-2-yl)tetrazolium bromide (MIT) solution (5 mg/mL) was added to each well and incubation was continued for an additional 4 hours at 37° C. 200 μL dimethyl sulfoxide (DMSO) was added to each well in order to dissolve the formazan produced and precipitated as a result of reduction of the MIT. The absorbance at 550 nm of each well was measured using a microplate reader.
The absorbance of each well was measured three times and each experiment was repeated at least three times. The IC50 value was calculated as the concentration that provided a 50% formazan production with reference to the control (no agent addition).

Read-outs that look alike come from different tables or passages of the source. A value given as a limit tells only on which side of the number the result lay.

Take “[{cis-Pt(NH3)2}2(μ-OH)(μ-tetrazolato-N2,N3)](ClO4)2 [sample 5]”: the half-maximal inhibitory concentration (IC50) (Table 2, same procedure) turned out to be 8.3 µM.

On to “[{cis-Pt(NH3)2}2(μ-OH)(μ-pyrazolato)](NO3)2 [sample 8]”, for which the IC50 (Table 2, same procedure) is greater than 100 µM.

As for “[{cis-Pt(NH3)2}2(μ-OH)(μ-tetrazolato-N1,N2)](ClO4)2 [sample 4]”, the IC50 (Table 2, same procedure) is 21 µM. On the same count and under the same terms, in the case of “[{cis-Pt(NH3)2}2(μ-OH)(μ-tetrazolato-5-ethylacetate-N2,N3)](NO3)2 [sample 7]” it was 22 µM; in that of `O=[N+]([O-])O.O=[N+]([O-])[O-].[NH2][Pt]1([NH2])[O][Pt]([NH2])([NH2])[n+]2ncc[n]21` [sample 9, [{cis-Pt(NH3)2}2(μ-OH)(μ-1,2,3-triazolato-N1,N2)](NO3)2], 62 µM. On to `N.N.[Cl][Pt][Cl]` [sample 3, cis-diamminedichloridoplatinum(II)], for which the IC50 worked out at 23 µM (Table 1, then 4 hours with tetrazolium dye) and 23 µM (Table 2, same procedure).

For the compound “[{cis-Pt(NH3)2}2(μ-OH)(μ-5-methyltetrazolato-N2,N3)](NO3)2 [sample 6]”, under “Table 2, same procedure”, the half-inhibitory concentration (IC50) is 20 µM.
